Reference: patent US20250214978A1, “AT2R AGONIST” (WUHAN HUMANWELL INNOVATIVE DRUG RESEARCH AND DEVELOPMENT …, priority 2022, published 2025)
Read-outs that look alike come from different tables or passages of the source.

How the values were obtained:
[1] = biological target: AT2R (Homo sapiens (Human), UniProt P50052); test: Binding assay of compounds to AT2R (Tag-lite HTRF ligand binding kit); details: 1 hour incubation at room temperature
Protocol: The assay was performed in accordance with the instruction manual of Angiotensin AT2 Receptor Ligand Binding Assay Kit (#C1TT1AT2, Cisbio). First, a compound stock solution (10 mM) was diluted in a gradient at a 5× dilution ratio (including 10 concentrations, each with two replicates). 160 nL of compounds at different concentrations was added to a 384-well plate. 40 μL of 1×TLB was added to each well, and the mixture was shaken at room temperature for 15 minutes. 15 mL centrifuge tube added with 5 mL of 1×TLB was prepared in advance. The frozen labeled cells were thawed in a water bath at 37° C. (for 1 to 2 minutes), and the thawed cells were quickly transferred to the above 15 mL centrifuge tube. The mixture was mixed well and centrifuged at 1,000 g at room temperature for 5 minutes. The supernatant was removed, and the cells were resuspended by adding 2.7 mL 1×TLB. A new 384-well plate was taken, and 10 μL of mixed cells were added into the corresponding wells according to the assay design. 5 μL of 4× compound solution and 5 μL of 4× Tag-lite red fluorescent labeled ligand were added to each well. After incubation at room temperature for 1 hour, data were read using EnVision with an HTRF mode. The excitation light intensities at 665 nM and 615 nM in each well were read respectively, and the ratio was calculated (Ratio=A665nMIB615 nM). The IC50 value was calculated by means of GraphPad Prism8 software, where X represents logarithmic value of compound concentration; and Y represents ratio of A665 nM/B615 nM.

[2] = Free plasma protein binding (PPB) assay, equilibrium dialysis; format: in vitro ADME; details: dialysis 6 hours at 37° C.
Protocol: The dried dialysis membrane was soaked in ultrapure water for 1 hour, then soaked in 20% ethanol for 20 minutes, and then rinsed with ultrapure water for 2 to 3 times. Finally, the dried dialysis membrane was soaked in ultrapure water for 20 minutes for later use. The frozen plasma was thawed in a water bath at 37° C. for about 20 minutes. pH value of the plasma was measured after thawing was complete, and was adjusted to 7.4 with 1% phosphoric acid solution or 0.1M sodium hydroxide solution. […] The pretreated dialysis membrane was assembled into the dialysis plate according to product instructions, and 100 μL of receiving solution (100 mM phosphate buffer solution plus 0.002% Tween 80) was added to one side of the permeable membrane in each dialysis well. 20 μL of each of the final solution of the test compound and the final solution of the control compound were taken in a 96-well sample plate, two duplicate samples were made, and T0 sample was obtained, which was stored in a −20° C. refrigerator. Another 100 μL of each of the above-mentioned final solutions were taken to the other side of the membrane in the dialysis device, two duplicate samples were made, and incubated at 37° C. with constant shaking for 6 hours. After 6 hours of incubation, 20 μL of each of the dialyzed receiving solution and the administered plasma were taken, two duplicate samples were made, and sample A and sample B were obtained. Corresponding blank plasma or receiving solution of corresponding volume were added to sample B and sample A, respectively, allowing the volume ratio of plasma to buffer in each sample well to be 1:1. 300 μL of sample-containing internal standard acetonitrile solution was added to all the sample wells. The mixture was mixed well, and centrifuged at 5,500×g for 10 minutes. 150 μL of corresponding ultrapure water was added to the corresponding sample wells of the 96-well sample plate. 150 μL of the supernatant was taken into the sample wells, and mixed well. Then, LC/MS/MS analysis was performed. The calculation formula of fu is: […]
where: CR: peak area ratio measured in the receiving chamber well CD: peak area ratio measured in the supply chamber well.

[3] = biological target: CYP2D6 (Homo sapiens (Human), UniProt P10635); test: CYP inhibition assay in mixed human liver microsomes; format: in vitro ADME; details: mixed (pooled) human liver microsomes, read-out: Inhibition rate % CYP2D6
Sequence of CYP2D6 (P10635 whole entry): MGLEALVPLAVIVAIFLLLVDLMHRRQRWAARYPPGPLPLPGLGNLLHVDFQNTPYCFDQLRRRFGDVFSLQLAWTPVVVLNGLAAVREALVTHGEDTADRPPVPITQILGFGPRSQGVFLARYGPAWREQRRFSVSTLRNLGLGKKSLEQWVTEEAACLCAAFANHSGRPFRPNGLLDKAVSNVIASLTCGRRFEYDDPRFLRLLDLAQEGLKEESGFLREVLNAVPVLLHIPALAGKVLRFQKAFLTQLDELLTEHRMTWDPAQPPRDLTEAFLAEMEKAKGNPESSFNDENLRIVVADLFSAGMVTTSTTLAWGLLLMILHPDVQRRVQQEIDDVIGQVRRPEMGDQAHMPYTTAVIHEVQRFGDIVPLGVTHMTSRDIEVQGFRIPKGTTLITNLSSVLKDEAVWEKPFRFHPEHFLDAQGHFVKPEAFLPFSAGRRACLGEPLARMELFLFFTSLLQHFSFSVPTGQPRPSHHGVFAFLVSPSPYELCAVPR
Protocol: (§1) The inhibitory effects of the compounds on seven enzymes, i.e., CYP1A2, CYP2C9, CYP2C19, CYP2D6, CYP3A4 (midazolam), CYP2B6, and CYP2C8, were evaluated at a concentration of 10 μM. Mixed human liver microsomes, which were previously stored in a −80° C. refrigerator before use, were taken out and thawed in a water bath at 37° C. before use, and placed on ice for further operation. 100 μL of microsome working solution was taken, and added with 2 μL of test product or positive inhibitor working solution. 2 μL of solvent was added to the solvent control. The mixture was pre-incubated in a water bath at 37° C. for 10 minutes. After preincubation, 98 μL of NADPH regeneration solution was added to all samples to initiate the reaction. Then, the samples were put back into the water bath and incubated for a period of time. The reaction was quenched with 200 μL of stop solution. The plate was centrifuged at 3,220 g for 10 minutes, 100 μL of supernatant was transferred, and 100 μL of water was added and mixed well to the assay plate for LC/MS/MS analysis.

[4] = biological target: CYP2C8 (Homo sapiens (Human), UniProt P10632); test: as above; format: in vitro ADME; details: mixed (pooled) human liver microsomes, read-out: Inhibition rate % CYP2C8
Sequence of CYP2C8 (P10632 whole entry): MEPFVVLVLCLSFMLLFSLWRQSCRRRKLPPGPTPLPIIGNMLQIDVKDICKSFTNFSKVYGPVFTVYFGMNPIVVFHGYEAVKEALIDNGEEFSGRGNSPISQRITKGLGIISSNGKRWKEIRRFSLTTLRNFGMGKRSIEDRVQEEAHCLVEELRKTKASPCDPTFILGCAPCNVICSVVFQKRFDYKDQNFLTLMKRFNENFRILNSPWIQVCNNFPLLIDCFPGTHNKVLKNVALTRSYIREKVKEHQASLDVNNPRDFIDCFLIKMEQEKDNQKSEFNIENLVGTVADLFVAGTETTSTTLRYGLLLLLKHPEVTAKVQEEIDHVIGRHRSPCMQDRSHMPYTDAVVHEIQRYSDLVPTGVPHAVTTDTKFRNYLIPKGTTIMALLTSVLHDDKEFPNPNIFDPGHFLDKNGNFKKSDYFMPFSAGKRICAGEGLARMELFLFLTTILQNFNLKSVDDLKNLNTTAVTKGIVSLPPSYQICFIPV
Protocol: as §1

[5] = biological target: CYP2B6 (Homo sapiens (Human), UniProt P20813); test: as above; format: in vitro ADME; details: mixed (pooled) human liver microsomes, read-out: Inhibition rate % CYP2B6
Sequence of CYP2B6 (P20813 whole entry): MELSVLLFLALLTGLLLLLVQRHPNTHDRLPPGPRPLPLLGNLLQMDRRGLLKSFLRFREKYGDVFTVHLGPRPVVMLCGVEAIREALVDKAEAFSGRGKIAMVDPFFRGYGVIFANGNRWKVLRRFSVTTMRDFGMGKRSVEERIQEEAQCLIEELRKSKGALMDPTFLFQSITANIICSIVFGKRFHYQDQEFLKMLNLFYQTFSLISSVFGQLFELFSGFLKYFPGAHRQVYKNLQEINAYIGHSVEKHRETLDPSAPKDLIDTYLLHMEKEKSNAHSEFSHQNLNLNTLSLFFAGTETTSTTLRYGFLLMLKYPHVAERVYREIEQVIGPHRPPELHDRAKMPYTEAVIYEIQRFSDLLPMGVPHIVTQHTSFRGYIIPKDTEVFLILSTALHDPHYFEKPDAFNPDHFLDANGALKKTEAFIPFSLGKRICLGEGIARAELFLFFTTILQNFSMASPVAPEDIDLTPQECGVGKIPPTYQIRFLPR
Protocol: as §1

[6] = biological target: CYP3A4 (Homo sapiens (Human), UniProt P08684); test: as above; format: in vitro ADME; details: mixed (pooled) human liver microsomes, probe midazolam, read-out: Inhibition rate % CYP3A4 (midazolam)
Sequence of CYP3A4 (P08684 whole entry): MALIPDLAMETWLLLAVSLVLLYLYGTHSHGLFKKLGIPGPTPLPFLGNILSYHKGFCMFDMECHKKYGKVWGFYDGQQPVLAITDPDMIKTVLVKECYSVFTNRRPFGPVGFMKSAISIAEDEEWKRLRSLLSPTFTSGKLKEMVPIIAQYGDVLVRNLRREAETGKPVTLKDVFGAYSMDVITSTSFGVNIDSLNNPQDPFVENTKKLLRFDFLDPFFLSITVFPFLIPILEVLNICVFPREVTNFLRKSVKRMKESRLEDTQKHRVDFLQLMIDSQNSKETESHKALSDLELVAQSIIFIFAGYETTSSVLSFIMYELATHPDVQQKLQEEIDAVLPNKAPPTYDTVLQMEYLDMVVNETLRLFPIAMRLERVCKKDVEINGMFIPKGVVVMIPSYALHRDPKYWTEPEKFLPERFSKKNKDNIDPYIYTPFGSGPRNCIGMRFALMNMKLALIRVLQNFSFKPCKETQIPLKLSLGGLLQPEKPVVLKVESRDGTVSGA
Protocol: as §1

[7] = biological target: CYP2C19 (Homo sapiens (Human), UniProt P33261); test: as above; format: in vitro ADME; details: mixed (pooled) human liver microsomes, read-out: Inhibition rate % CYP2C19
Sequence of CYP2C19 (P33261 whole entry): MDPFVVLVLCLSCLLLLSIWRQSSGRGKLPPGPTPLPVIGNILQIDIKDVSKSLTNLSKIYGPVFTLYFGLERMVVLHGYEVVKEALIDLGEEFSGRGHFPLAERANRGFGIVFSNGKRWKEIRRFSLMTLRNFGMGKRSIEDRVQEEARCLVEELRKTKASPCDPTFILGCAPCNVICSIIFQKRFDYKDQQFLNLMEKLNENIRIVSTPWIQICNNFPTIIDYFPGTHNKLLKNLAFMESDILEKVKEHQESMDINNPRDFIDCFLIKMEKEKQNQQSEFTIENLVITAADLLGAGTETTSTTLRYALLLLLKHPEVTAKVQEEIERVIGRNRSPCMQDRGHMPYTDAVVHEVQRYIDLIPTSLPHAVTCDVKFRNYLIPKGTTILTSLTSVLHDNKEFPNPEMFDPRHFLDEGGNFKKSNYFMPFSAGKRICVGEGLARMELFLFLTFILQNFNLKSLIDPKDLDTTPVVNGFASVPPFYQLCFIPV
Protocol: as §1

[8] = biological target: CYP1A2 (Homo sapiens (Human), UniProt P05177); test: as above; format: in vitro ADME
Sequence of CYP1A2 (P05177 whole entry): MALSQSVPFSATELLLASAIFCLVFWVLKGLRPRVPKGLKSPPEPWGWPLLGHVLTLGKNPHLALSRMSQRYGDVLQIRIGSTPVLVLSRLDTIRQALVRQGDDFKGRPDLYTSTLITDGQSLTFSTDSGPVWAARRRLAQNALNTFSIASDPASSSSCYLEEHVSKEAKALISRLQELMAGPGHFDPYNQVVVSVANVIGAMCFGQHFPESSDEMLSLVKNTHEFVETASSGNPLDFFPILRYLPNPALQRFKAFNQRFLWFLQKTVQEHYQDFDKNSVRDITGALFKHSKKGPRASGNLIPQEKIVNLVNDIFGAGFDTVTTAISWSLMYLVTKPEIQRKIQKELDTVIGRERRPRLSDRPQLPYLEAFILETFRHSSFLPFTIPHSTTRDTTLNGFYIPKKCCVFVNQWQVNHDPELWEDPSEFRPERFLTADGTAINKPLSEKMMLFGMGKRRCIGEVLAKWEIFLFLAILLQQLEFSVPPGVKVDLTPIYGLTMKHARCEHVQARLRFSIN
Protocol: as §1

[9] = biological target: CYP2C9 (Homo sapiens (Human), UniProt P11712); test: as above; format: in vitro ADME; details: mixed (pooled) human liver microsomes, read-out: Inhibition rate % CYP2C9
Sequence of CYP2C9 (P11712 whole entry): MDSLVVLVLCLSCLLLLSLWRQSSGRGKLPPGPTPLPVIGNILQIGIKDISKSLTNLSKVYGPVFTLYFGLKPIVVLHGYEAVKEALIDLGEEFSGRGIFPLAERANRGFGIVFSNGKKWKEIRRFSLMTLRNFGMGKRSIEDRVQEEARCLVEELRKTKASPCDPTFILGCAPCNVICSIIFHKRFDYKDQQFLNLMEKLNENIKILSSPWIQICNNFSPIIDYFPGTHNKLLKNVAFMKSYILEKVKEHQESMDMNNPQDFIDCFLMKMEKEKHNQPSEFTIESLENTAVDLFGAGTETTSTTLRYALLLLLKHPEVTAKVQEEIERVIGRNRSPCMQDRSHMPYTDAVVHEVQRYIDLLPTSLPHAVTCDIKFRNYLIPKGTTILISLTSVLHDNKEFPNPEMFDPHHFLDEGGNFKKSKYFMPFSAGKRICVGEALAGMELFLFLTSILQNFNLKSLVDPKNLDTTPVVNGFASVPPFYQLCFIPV
Protocol: as §1

[10] = Liver microsome stability assay; format: in vitro ADME; details: Human liver microsomes, NADPH, 37° C.; read-out: T1/2 (min) Human
Protocol: The human liver microsome stability assay was performed by co-incubating the compound with human liver microsomes in vitro. The test compounds were first prepared as 10 mM stock solutions in DMSO solvent, and then diluted to 0.5 mM with acetonitrile. Human liver microsomes (Corning) were diluted with PBS to prepare a microsome/buffer solution, and this solution was used to dilute 0.5 mM of the compound to prepare a working solution. In the working solution, a concentration of the compound was 1.5 μM and a concentration of the human liver microsome was 0.75 mg/ml. A deep-well plate was taken, 30 μL of working solution was added to each well of the plate, and then 15 μL of pre-heated NADPH solution (6 mM) was added to start the reaction. The mixture was incubated at 37° C. 135 μL of acetonitrile was added to the corresponding wells to stop the reaction at 0 minute, 5 minutes, 15 minutes, 30 minute, and 45 minutes of incubation. Subsequent to the stop of the reaction by means of acetonitrile at the last time point of 45 minute, the plate was vortexed for 10 minutes (600 rpm/min) and then centrifuged for 15 minutes. […] The peak area ratios of the compound at 5 minutes, 15 minutes, 30 minutes, and 45 minutes were compared with the peak area ratio at 0 minute, and the remaining percentage of the compound at each time point was calculated. T1/2 was calculated using Graphpad8 software.

[11] = Liver microsome stability assay; format: in vitro ADME; details: dog; Canine liver microsomes; read-out: T1/2 (min) Canine
[12] = Liver microsome stability assay; format: in vitro ADME; details: Rat liver microsomes; read-out: T1/2 (min) Rat
[13] = Liver microsome stability assay; format: in vitro ADME; details: Mouse liver microsomes; read-out: T1/2 (min) Mouse
[14] = test system: Caco-2 cells; test: Bidirectional permeability study in CACO-2 cells; format: in vitro ADME; details: Caco-2 monolayer, 2.00 μM, 2 hours, pH 7.40
Protocol: Caco-2 cells were inoculated onto polyethylene membrane (PET) in 96-well inserted plates at a rate of 1×10^5 cells/cm^2, and the medium was changed every 4 to 5 days until day 21 to 28, to form a fused cell monolayer. The transport buffer in the assay was HBSS and 10.0 mM HEPES, with a pH of 7.40±0.05. The test compounds were subjected to a bidirectional test at 2.00 μM in the presence and absence of GF120918 (10.0 μM). Digoxin was subjected to a bidirectional test at 10.0 μM in the presence and absence of GF120918 (10.0 μM), while Nadolol and Metoprolol were subjected to a test from direction A to direction B at 2.00 μM in the absence of GF120918 (10.0 μM). The above tests were performed in duplicate. The final concentration of DMSO was adjusted to be lower than 1%. The plate was incubated in a CO2 incubator at 37° C.±1° C. for 2 hours, and 5% CO2 was added under saturated humidity without shaking. All the samples, after being mixed with acetonitrile containing internal standard, were centrifuged at 3,200 g for 10 minutes. […] The concentrations of the test compounds and control compounds in the starting solution, the donor solution, and the acceptor solution were quantified by LC-MS/MS based on a peak area ratio of the analyte to the internal standard.
After the transport assay, the integrity of the Caco-2 cell monolayer was determined using Lucifer Yellow Exclusion Assay.

[15] = pH 7.4, Mouse plasma, read-out: fu % Mouse
[16] = dog, pH 7.4, Canine plasma, read-out: fu % Canine
[17] = pH 7.4, Human plasma, read-out: fu % Human
[18] = pH 7.4, Rat plasma, read-out: fu % Rat

Sequence of AT2R (P50052 whole entry): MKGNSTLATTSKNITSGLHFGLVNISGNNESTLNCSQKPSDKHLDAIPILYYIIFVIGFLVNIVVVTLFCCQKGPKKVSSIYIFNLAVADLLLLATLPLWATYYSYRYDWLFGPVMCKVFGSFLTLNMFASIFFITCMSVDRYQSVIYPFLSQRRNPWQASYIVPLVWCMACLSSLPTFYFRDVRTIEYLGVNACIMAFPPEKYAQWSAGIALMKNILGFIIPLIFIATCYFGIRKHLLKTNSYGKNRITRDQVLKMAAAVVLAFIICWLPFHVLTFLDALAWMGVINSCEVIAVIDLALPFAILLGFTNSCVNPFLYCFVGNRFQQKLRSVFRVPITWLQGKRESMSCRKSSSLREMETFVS

| IC50 [1] | fraction unbound at 6 h, 1 μM [2, 15] | inhibition at 10 µM [3] | inhibition at 10 µM [4] | inhibition at 10 µM [5] | inhibition at 10 µM [6] | inhibition at 10 µM [7] | inhibition at 10 µM [8] | inhibition at 10 µM [9] | half-life at 1 μM [10] | half-life at 1 μM [11] | fraction unbound at 6 h, 1 μM [2, 16] | fraction unbound at 6 h, 1 μM [2, 17] | fraction unbound at 6 h, 1 μM [2, 18] | half-life at 1 μM [12] | half-life at 1 μM [13] | Papp mean value (10^−6 cm/s) A to B [14] | Structure (SMILES) |
| --- | --- | --- | --- | --- | --- | --- | --- | --- | --- | --- | --- | --- | --- | --- | --- | --- | --- |
| 1.68 nM | 0.0427 | 11.4% | 50.6% | 16.9% | 0% | 21.7% | 0% | 32.8% |  |  |  |  |  |  |  |  | CCc1nccn1Cc1ccc(-c2cc(CC(C)C)sc2S(=O)(=O)NC(=O)OC)cc1C#N [Compound I-14, Methyl ((3-(3-cyano-4-((2-ethyl-1H-imidazol-1-yl)methyl)phenyl)-5-isobutylthiophen-2-yl)sulfonyl)carbamate] |
| 2.68 nM |  | 9.54% | 33.6% | 11.1% | 6.78% | 35.3% | 25% | 46.8% | 239 min | 578 min | 0.0349 | 0.0126 | 0.0109 | 83.5 min | 1730 min |  | COC(=O)NS(=O)(=O)c1sc(CC(C)C)c(C)c1-c1ccc(Cn2ccnc2C)cc1 [Compound I-16, Methyl (5-isobutyl-4-methyl-3-(4-((2-methyl-1H-imidazol-1-yl)methyl)phenyl)thiophen-2-yl)sulfonylcarbamate] |
|  | 0.0009 |  | 97.5% |  |  |  |  |  |  | 224 min | 0.0023 | 0.0006 | 0.0005 | 22.6 min | 49.1 min | 0.381 10^−6 cm/s | CCCCOC(=O)NS(=O)(=O)c1sc(CC(C)C)cc1-c1ccc(Cn2ccnc2)cc1 [Control Compound I, reference compound] |
